Reference: patent US8802597B2, “Herbicidal pyrimidines” (E I du Pont de Nemours and Company, priority 2003, dated 2014)
Like-named read-outs stand apart in the source and are kept apart here.

Legend:
Type in all cases: in vivo
[1] = test system: Surinam grass (Brachiaria decumbens); assay: Test B pre/postemergence; details: Urochloa decumbens; for pest or weed control at 125 g/ha: 125 g ai/ha; for pest or weed control at 500 g/ha: 500 g ai/ha
How it was run: (§1)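 Scores reflect visual comparison with untreated controls, where 0 means no effect and 100 complete control. Plants stayed 13 to 15 days in the greenhouse after pre- or postemergence treatment with compounds carried in a non-phytotoxic solvent and surfactant.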

[2] = test system: barnyardgrass (Echinochloa crus-galli); assay: Test B pre/postemergence; details: Echinochloa crus-galli; for pest or weed control at 125 g/ha: 125 g ai/ha; for pest or weed control at 500 g/ha: 500 g ai/ha
How it was run: as §1

[3] = test system: cocklebur (Xanthium strumarium); assay: Test B pre/postemergence; details: Xanthium strumarium; for pest or weed control at 125 g/ha: 125 g ai/ha; for pest or weed control at 500 g/ha: 500 g ai/ha
How it was run: as §1

corn (Zea mays) = assay: Test B pre/postemergence; details: Zea mays
How it was run: as §1

[4] = test system: crabgrass (Digitaria sanguinalis); assay: Test B pre/postemergence; details: Digitaria sanguinalis; for pest or weed control at 125 g/ha: 125 g ai/ha; for pest or weed control at 500 g/ha: 500 g ai/ha
How it was run: as §1

[5] = test system: giant foxtail (Setaria faberii); assay: Test B pre/postemergence; details: Setaria faberi; for pest or weed control at 125 g/ha: 125 g ai/ha; for pest or weed control at 500 g/ha: 500 g ai/ha
How it was run: as §1

[6] = test system: lambsquarters (Chenopodium album); assay: Test B pre/postemergence; details: Chenopodium album; for pest or weed control at 125 g/ha: 125 g ai/ha; for pest or weed control at 500 g/ha: 500 g ai/ha
How it was run: as §1

[7] = test system: morningglory (Ipomoea coccinea); assay: Test B pre/postemergence; details: Ipomoea; for pest or weed control at 125 g/ha: 125 g ai/ha; for pest or weed control at 500 g/ha: 500 g ai/ha
How it was run: as §1

[8] = test system: pigweed (Amaranthus retroflexus); assay: Test B pre/postemergence; details: Amaranthus retroflexus; for pest or weed control at 125 g/ha: 125 g ai/ha; for pest or weed control at 500 g/ha: 500 g ai/ha
How it was run: as §1

[9] = test system: velvetleaf (Abutilon theophrasti); assay: Test B pre/postemergence; details: Abutilon theophrasti; for pest or weed control at 125 g/ha: 125 g ai/ha; for pest or weed control at 500 g/ha: 500 g ai/ha
How it was run: as §1

[10] = test system: wheat (Triticum aestivum); assay: Test B pre/postemergence; details: Triticum aestivum; for plant injury at 125 g/ha: 125 g ai/ha; for plant injury at 500 g/ha: 500 g ai/ha
How it was run: as §1

[11] = test system: blackgrass (Alopecurus myosuroides); assay: Test B postemergence; details: Alopecurus myosuroides, post-emergence
How it was run: as §1

wild oat (Avena fatua) = assay: Test B postemergence; details: Avena fatua, post-emergence
How it was run: as §1

[12] = test system: barnyardgrass (Echinochloa crus-galli); assay: Test B flooded paddy test; details: Echinochloa crus-galli, Flood, 1000 g ai/ha; scale 0 (no effect) to 100 (complete control); read-out: Plant response rating, Barnyardgrass
How it was run: (§2)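 Plants were grown to the 2-leaf stage before treatment, then kept in a greenhouse for 13 to 15 days. Injury was rated visually against untreated controls on a 0 to 100 scale, where 0 is no effect and 100 is complete control.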

[13] = test system: duck salad (Heteranthera limosa); assay: Test B flooded paddy test; details: Heteranthera limosa, Flood, 1000 g ai/ha; scale 0 to 100; read-out: Plant response rating, Ducksalad
How it was run: as §2

rice (Oryza sativa) = assay: Test B flooded paddy test; details: Oryza sativa, Flood, 1000 g ai/ha; scale 0 to 100; read-out: Plant response rating, Rice
How it was run: as §2

[14] = test system: umbrella sedge (Cyperus difformis); assay: Test B flooded paddy test; details: Cyperus difformis, Flood, 1000 g ai/ha; scale 0 to 100; read-out: Plant response rating, Sedge, Umbrella
How it was run: as §2

SMILES: CCOC(=O)c1nc(-c2ccccc2)nc(N)c1Br [Compound 18]
- pest or weed control at 125 g/ha ([1]; post-emergence, Postemergence, scale 0 to 100 (0 no effect, 100 complete control), read-out: Surinam Grass plant response rating): 0%
- pest or weed control at 500 g/ha ([1]; post-emergence, Postemergence, scale 0 to 100, read-out: Plant response rating, Surinam Grass): 0%
- pest or weed control at 125 g/ha ([1]; pre-emergence, Preemergence, scale 0 to 100 (0 no effect, 100 complete control), read-out: Plant response rating, Surinam Grass): 0%
- pest or weed control at 500 g/ha ([1]; pre-emergence, Preemergence, scale 0 to 100 (0 no effect, 100 complete control), read-out: Surinam Grass plant response rating): 0%
- pest or weed control at 125 g/ha ([2]; post-emergence, Postemergence, scale 0 to 100 (0 no effect, 100 complete control), read-out: Barnyardgrass plant response rating): 0%
- pest or weed control at 500 g/ha ([2]; post-emergence, Postemergence, scale 0 to 100, read-out: Plant response rating, Barnyardgrass): 0%
- pest or weed control at 125 g/ha ([2]; pre-emergence, Preemergence, scale 0 to 100 (0 no effect, 100 complete control), read-out: Plant response rating, Barnyardgrass): 0%
- pest or weed control at 500 g/ha ([2]; pre-emergence, Preemergence, scale 0 to 100 (0 no effect, 100 complete control), read-out: Barnyardgrass plant response rating): 0%
- pest or weed control at 125 g/ha ([3]; post-emergence, Postemergence, scale 0 to 100 (0 no effect, 100 complete control), read-out: Cocklebur plant response rating): 70%
- pest or weed control at 500 g/ha ([3]; post-emergence, Postemergence, scale 0 to 100, read-out: Plant response rating, Cocklebur): 70%
- pest or weed control at 125 g/ha ([3]; pre-emergence, Preemergence, scale 0 to 100 (0 no effect, 100 complete control), read-out: Plant response rating, Cocklebur): 10%
- pest or weed control at 500 g/ha ([3]; pre-emergence, Preemergence, scale 0 to 100 (0 no effect, 100 complete control), read-out: Cocklebur plant response rating): 40%
- plant injury at 125 g/ha (corn (Zea mays); post-emergence, Postemergence, 125 g ai/ha, scale 0 to 100 (0 no effect, 100 complete control), read-out: Corn plant response rating): 0%
- Corn plant response rating (crop injury, 0 = no effect, 100 = complete kill) at 500 g/ha (corn (Zea mays); post-emergence, Postemergence, 500 g ai/ha, scale 0 to 100): 0%
- Corn plant response rating (crop injury, 0 = no effect, 100 = complete kill) at 125 g/ha (corn (Zea mays); pre-emergence, Preemergence, 125 g ai/ha, scale 0 to 100 (0 no effect, 100 complete control)): 0%
- plant injury at 500 g/ha (corn (Zea mays); pre-emergence, Preemergence, 500 g ai/ha, scale 0 to 100 (0 no effect, 100 complete control), read-out: Corn plant response rating): 0%
- pest or weed control at 125 g/ha ([4]; post-emergence, Postemergence, scale 0 to 100 (0 no effect, 100 complete control), read-out: Crabgrass plant response rating): 0%
- pest or weed control at 500 g/ha ([4]; post-emergence, Postemergence, scale 0 to 100, read-out: Plant response rating, Crabgrass): 0%
- pest or weed control at 125 g/ha ([4]; pre-emergence, Preemergence, scale 0 to 100 (0 no effect, 100 complete control), read-out: Plant response rating, Crabgrass): 0%
- pest or weed control at 500 g/ha ([4]; pre-emergence, Preemergence, scale 0 to 100 (0 no effect, 100 complete control), read-out: Crabgrass plant response rating): 0%
- pest or weed control at 125 g/ha ([5]; post-emergence, Postemergence, scale 0 to 100 (0 no effect, 100 complete control), read-out: Foxtail, Giant plant response rating): 0%
- pest or weed control at 500 g/ha ([5]; post-emergence, Postemergence, scale 0 to 100, read-out: Plant response rating, Foxtail, Giant): 0%
- pest or weed control at 125 g/ha ([5]; pre-emergence, Preemergence, scale 0 to 100 (0 no effect, 100 complete control), read-out: Plant response rating, Foxtail, Giant): 0%
- pest or weed control at 500 g/ha ([5]; pre-emergence, Preemergence, scale 0 to 100 (0 no effect, 100 complete control), read-out: Foxtail, Giant plant response rating): 0%
- pest or weed control at 125 g/ha ([6]; post-emergence, Postemergence, scale 0 to 100 (0 no effect, 100 complete control), read-out: Lambsquarters plant response rating): 70%
- pest or weed control at 500 g/ha ([6]; post-emergence, Postemergence, scale 0 to 100, read-out: Plant response rating, Lambsquarters): 90%
- pest or weed control at 125 g/ha ([6]; pre-emergence, Preemergence, scale 0 to 100 (0 no effect, 100 complete control), read-out: Plant response rating, Lambsquarters): 10%
- pest or weed control at 500 g/ha ([6]; pre-emergence, Preemergence, scale 0 to 100 (0 no effect, 100 complete control), read-out: Lambsquarters plant response rating): 60%
- pest or weed control at 125 g/ha ([7]; post-emergence, Postemergence, scale 0 to 100 (0 no effect, 100 complete control), read-out: Morningglory plant response rating): 20%
- pest or weed control at 500 g/ha ([7]; post-emergence, Postemergence, scale 0 to 100, read-out: Plant response rating, Morningglory): 70%
- pest or weed control at 125 g/ha ([7]; pre-emergence, Preemergence, scale 0 to 100 (0 no effect, 100 complete control), read-out: Plant response rating, Morningglory): 0%
- pest or weed control at 500 g/ha ([7]; pre-emergence, Preemergence, scale 0 to 100 (0 no effect, 100 complete control), read-out: Morningglory plant response rating): 0%
- pest or weed control at 125 g/ha ([8]; post-emergence, Postemergence, scale 0 to 100 (0 no effect, 100 complete control), read-out: Pigweed plant response rating): 20%
- pest or weed control at 500 g/ha ([8]; post-emergence, Postemergence, scale 0 to 100, read-out: Plant response rating, Pigweed): 70%
- pest or weed control at 125 g/ha ([8]; pre-emergence, Preemergence, scale 0 to 100 (0 no effect, 100 complete control), read-out: Plant response rating, Pigweed): 0%
- pest or weed control at 500 g/ha ([8]; pre-emergence, Preemergence, scale 0 to 100 (0 no effect, 100 complete control), read-out: Pigweed plant response rating): 70%
- pest or weed control at 125 g/ha ([9]; post-emergence, Postemergence, scale 0 to 100 (0 no effect, 100 complete control), read-out: Velvetleaf plant response rating): 20%
- pest or weed control at 500 g/ha ([9]; post-emergence, Postemergence, scale 0 to 100, read-out: Plant response rating, Velvetleaf): 50%
- pest or weed control at 125 g/ha ([9]; pre-emergence, Preemergence, scale 0 to 100 (0 no effect, 100 complete control), read-out: Plant response rating, Velvetleaf): 0%
- pest or weed control at 500 g/ha ([9]; pre-emergence, Preemergence, scale 0 to 100 (0 no effect, 100 complete control), read-out: Velvetleaf plant response rating): 40%
- plant injury at 125 g/ha ([10]; post-emergence, Postemergence, scale 0 to 100 (0 no effect, 100 complete control), read-out: Wheat plant response rating): 0%
- plant injury at 500 g/ha ([10]; post-emergence, Postemergence, scale 0 to 100, read-out: Plant response rating, Wheat): 0%
- plant injury at 125 g/ha ([10]; pre-emergence, Preemergence, scale 0 to 100 (0 no effect, 100 complete control), read-out: Plant response rating, Wheat): 0%
- plant injury at 500 g/ha ([10]; pre-emergence, Preemergence, scale 0 to 100 (0 no effect, 100 complete control), read-out: Wheat plant response rating): 0%
- pest or weed control at 125 g/ha ([11]; 125 g ai/ha, scale 0 to 100 (0 no effect, 100 complete control), read-out: Blackgrass plant response rating): 0%
- pest or weed control at 500 g/ha ([11]; 500 g ai/ha, scale 0 to 100, read-out: Plant response rating, Blackgrass): 0%
- pest or weed control at 125 g/ha (wild oat (Avena fatua); 125 g ai/ha, scale 0 to 100 (0 no effect, 100 complete control), read-out: Oat, Wild plant response rating): 0%
- pest or weed control at 500 g/ha (wild oat (Avena fatua); 500 g ai/ha, scale 0 to 100, read-out: Plant response rating, Oat, Wild): 0%
- pest or weed control at 1000 g/ha [12]: 0%
- pest or weed control at 1000 g/ha [13]: 80%
- plant injury at 1000 g/ha (rice (Oryza sativa)): 0%
- pest or weed control at 1000 g/ha [14]: 0%
